Here are results for five compounds from patent EP1674468A1, “Polymorphs of clopidogrel hydrobromide” (Ratiopharm GmbH, priority 2004, dated 2006).

How the values of data set [1] were obtained:
Example 10: Stability of the forms (solvent mediated transformation studies)
To assess the stability of the anhydrous Forms A and B, solvent mediated transformation experiments were performed. […] This was tested by viewing a few crystals of Form A/Form B under the microscope by placing them on a glass plate with a cover-slip, adding a drop of water and spreading around the cover. […] Table 3: Results of the solvent mediated transformation studies

For data set [2] the following is noted: in vivo; cited from earlier work.
The next data set deals with platelet aggregation. The settings on record: 75 mg of base equivalent versus 325 mg of acetyl salicylic acid; cited from earlier work.
For data set [3] the following is noted: room temperature, closed glass container, after 8 to 10 month; PXRD, DSC, Raman. From the text:
Polymorph Form B of clopidogrel hydrobromide obtained in example 2a) was stored at room temperature in a closed glass container.

For data set [4] the following is noted: benzene/ acetonitrile 1:1, method example b (dissolved at 70°C, evaporation 24 hours at room temperature). As for the experimental part: Method example b: 100 mg of clopidogrel hydrobromide HY-1 were dissolved in 3-5 ml of the first solvent at a temperature of 70°C. 8-10 ml of the second solvent were added to the solution over 3-5 minutes to reduce the polarity until it becomes a saturated solution. The solvent mixture was allowed to evaporate for 24 hours at room temperature at ambient pressure for 24 hours. The precipitate was filtered off.

The conditions of data set [5]: 100 mg in 5 ml, water bath at 80-100°C. As for the experimental part:
Method example 1: 100 mg of clopidogrel hydrobromide HY-1 obtained according to example Ba) was dissolved in 5 ml of the solvent on a water bath at 80-100°C with constant shaking and the solvent was allowed to evaporate slowly at room temperature for 24 hours at ambient pressure.

Counter-ions that a name gives are not always drawn. Like-named read-outs stand apart in the source and are kept apart here. Bounds are passed on as bounds.

Consider `COC(=O)[C@H](c1ccccc1Cl)N1CCc2sccc2C1` [A:B (1:1), clopidogrel hydrobromide], for which the Resulting form result is recorded as “HY-2” in data set [1] (solvent toluene, 1 day/10-30°C) and “HY-1” in data set [1] (solvent water, 1 day/20°C). In addition, the “polymorph produced on stirring” value in data set [1] (toluene (200 mg in 3-5 ml), 10-30°C, 1-4 days, formed after 1 day, confirmed after 4 days and 2-4 weeks by PXRD, DSC, TGA, Raman) is reported as “HY-2”.
As to `COC(=O)[C@H](c1ccccc1Cl)N1CCc2sccc2C1` [Clopidogrel, (αS)-α-(2-chlorophenyl)-6,7-dihydrothieno[3,2-c]-pyridine-5(4H)-acetic acid methyl ester], in data set [2], the “gastrointestinal bleeding versus acetyl salicylic acid” value is recorded as “much less”. Also, the “effectiveness in blocking platelet aggregation versus acetyl salicylic acid” value in the data set on platelet aggregation is “more effective”.
Consider `COC(=O)[C@H](c1ccccc1Cl)N1CCc2sccc2C1` [Form A, clopidogrel hydrobromide], for which the “time span within which needle like crystals corresponding to HY-1 were formed” value in data set [1] (a few crystals on a glass plate under the microscope, a drop of water added) is recorded as no more than 30 min. Besides, in data set [1] (apolar solvents containing minimal amounts of water), the “time span within which the form is converted to the hydrate, i.e. HY-1” value was no more than 1 h. Also, the Resulting form result in data set [1] (solvent water, 30 min/25°C) is “HY-1”.
Turning to `COC(=O)[C@H](c1ccccc1Cl)N1CCc2sccc2C1` [Form B, clopidogrel hydrobromide], in data set [3], the “polymorphic form identified after storage” value is given as “Form E”.
For `COC(=O)[C@H](c1ccccc1Cl)N1CCc2sccc2C1` [Form HY-1, clopidogrel hydrobromide], in data set [4], the “Remarks (behaviour in the solvent mixture)” value is recorded as “Decomposition”. Further, the solubility result is on record as “highly soluble” in data set [5] (solvent acetic acid); “soluble” in data set [5] (solvent acetone); “soluble” in data set [5] (solvent acetonitrile); “sparingly soluble” in data set [5] (solvent benzene); “highly soluble” in data set [5] (solvent chloroform); “insoluble” in data set [5] (solvent cyclohexane). Besides, the solubility result in data set [5] (solvent dichloromethane) is recorded as “highly soluble”; in data set [5] (solvent diethylether), “insoluble”; in data set [5] (solvent dimethylformamide), “soluble”; in data set [5] (solvent dioxane) it was “soluble in hot”; in data set [5] (solvent ethanol) it was “highly soluble”; in data set [5] (solvent ethylacetate), “soluble in hot”. Also, the solubility result in data set [5] (solvent i-propanol) is listed as “highly soluble”; in data set [5] (solvent methanol), “highly soluble”; in data set [5] (solvent n-butanol), “highly soluble”; in data set [5] (solvent n-decane), “insoluble”; in data set [5] (solvent n-hexane), “insoluble”; in data set [5] (solvent n-pentanol) it was “soluble”. Also, the solubility entry in data set [5] (solvent n-propanol) is given as “highly soluble”; in data set [5] (solvent nitromethane), “soluble”; in data set [5] (solvent petrolether), “insoluble”; in data set [5] (solvent tetrachloromethane), “insoluble”; in data set [5] (solvent tetrahydrofurane) it was “soluble in hot”; in data set [5] (solvent toluene) it was “soluble in hot”. Further, the results for the solubility entry in data set [5] (solvent water) and in data set [5] (solvent xylene) were “sparingly soluble in hot” and “soluble in hot”, respectively.
